Results on 11 molecules are retold here after ChEMBL document CHEMBL1201862, “PubChem BioAssay data set” (2004).

Test systems include 786-0; A498; HOP-62; MDA-MB-231; OVCAR-3; TK-10; UACC-62; RPMI-8226; M14; NCI-H23; NCI-H522; SK-MEL-5; CAKI-1; T47D; SNB-75; NCI/ADR-RES; SF-539; OVCAR-8; SNB-19; LXFL 529.
Assay in all cases: inhibition of tumour cell growth, NCI panel, 48 h

Structures are written as SMILES.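 Cultured in 96-well plates, cells were exposed to test compound for 48 hours across five concentrations. Abbreviation: GI50, concentration required for 50% inhibition of growth.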 Calls of active or inactive are those of the source. Cut-off read from the data, not from the text of the source: active = GI50 up to about 1.1 µM and inactive = higher.

With `CCN1C/C(=C\c2cc(OC)c(OC)c(OC)c2)C2=NN(c3ccccc3)C(c3cc(OC)c(OC)c(OC)c3)C2C1` (configuration not stated), the GI50 in the assay on 786-0 is 0.398 µM (active); with A498 it was 17.1 µM (inactive); with HOP-62, 0.855 µM (active); in the assay on MDA-MB-231 it was 0.525 µM (active); in the assay with OVCAR-3, 3.63 µM (inactive); with TK-10, 1.65 µM (inactive). For the same molecule, the GI50 is 20.1 µM (inactive) in the assay with UACC-62; 1.13 µM (inactive) with RPMI-8226; 1.7 µM (inactive) with M14; 3.56 µM (inactive) in the assay with NCI-H23; 1.13 µM (inactive) in the assay with NCI-H522; 3.74 µM (inactive) with SK-MEL-5. Moreover, the GI50 in the assay with CAKI-1 is 0.91 µM (active); in the assay with T47D, 3.53 µM (inactive); in the assay on SNB-75, 0.268 µM (active); in the assay with NCI/ADR-RES it was 1.43 µM (inactive); with SF-539, 0.535 µM (active); with OVCAR-8, 1.61 µM (inactive). Moreover, in the assay on SNB-19, the GI50 was 1.97 µM (inactive).
In the case of `COc1cc2c(cc1OCCN1C(=O)c3cccc4cccc(c34)C1=O)N=C[C@@H]1CCCN1C2=O`, the GI50 with 786-0 was 7.96 µM (inactive); with A498, 9.04 µM (inactive); with HOP-62, 21.5 µM (inactive); with MDA-MB-231 it was 7.41 µM (inactive); with OVCAR-3 it was 6.68 µM (inactive); in the assay on TK-10 it was 8.05 µM (inactive). Further, the GI50 with UACC-62 was 7.93 µM (inactive); with RPMI-8226, 9.27 µM (inactive); with M14, 8.34 µM (inactive); with NCI-H23, 10.4 µM (inactive); with NCI-H522, 1.17 µM (inactive); with SK-MEL-5, 8.61 µM (inactive). The GI50 is 7.5 µM (inactive) with CAKI-1; 9.35 µM (inactive) in the assay with T47D; 13.3 µM (inactive) in the assay with SNB-75; 15.8 µM (inactive) in the assay on NCI/ADR-RES; 9.12 µM (inactive) with SF-539; 8.57 µM (inactive) with OVCAR-8. For the same molecule, the GI50 in the assay on SNB-19 is 12.4 µM (inactive).
`CC1CC[C@@]2(OC1)O[C@H]1C[C@H]3[C@@H]4CC[C@H]5C[C@@H](OC6OC(CO)C(OC7OC(CO)C(OC8OC(CO)C(O)C(OC9OC(C)C(OC%10OC(C)C(O)C(O)C%10O)C(O)C9O)C8OC8OCC(O)C(O)C8O)C(O)C7O)C(O)C6O)CC[C@]5(C)[C@H]4CC(=O)[C@]3(C)[C@H]1[C@@H]2C` (some centres not stated): the GI50 is 22.4 µM (inactive) in the assay with 786-0; 18.2 µM (inactive) in the assay with A498; 21.4 µM (inactive) in the assay on HOP-62; 16.1 µM (inactive) in the assay with MDA-MB-231; 22.6 µM (inactive) with OVCAR-3; 17.7 µM (inactive) in the assay on TK-10. In addition, the GI50 was 18.8 µM (inactive) in the assay with UACC-62; 16.2 µM (inactive) in the assay on RPMI-8226; 20.8 µM (inactive) with M14; 20.5 µM (inactive) with NCI-H23; 23.7 µM (inactive) in the assay with NCI-H522; 16.8 µM (inactive) with SK-MEL-5. For the same molecule, the GI50 in the assay on CAKI-1 is 15.6 µM (inactive); in the assay on T47D, 19.3 µM (inactive); in the assay with SNB-75, 19.8 µM (inactive); in the assay on NCI/ADR-RES, 23.7 µM (inactive); with SF-539, 14.8 µM (inactive); in the assay with OVCAR-8, 20.7 µM (inactive). For the same molecule, in the assay on SNB-19, the GI50 is 20.5 µM (inactive).
As to `COc1ccc(OC)c([N+](=O)[O-])c1-c1nc2sc(Cl)cn2c1/C=N/N=C(N)N`, the GI50 with 786-0 is 42.9 µM (inactive); with A498 it was 14.1 µM (inactive); in the assay on HOP-62 it was 55.8 µM (inactive); in the assay on MDA-MB-231, 15.1 µM (inactive); in the assay on OVCAR-3, 16 µM (inactive); with TK-10, 25.2 µM (inactive). For the same molecule, the GI50 in the assay with UACC-62 was 13.3 µM (inactive); with RPMI-8226, 26.9 µM (inactive); with M14, 34.4 µM (inactive); in the assay on NCI-H23 it was 26.4 µM (inactive); with NCI-H522, 16.6 µM (inactive); in the assay on SK-MEL-5, 14.4 µM (inactive). Moreover, the GI50 in the assay with CAKI-1 was 17.1 µM (inactive); in the assay with T47D it was 17.8 µM (inactive); in the assay on SNB-75, 10.1 µM (inactive); in the assay with NCI/ADR-RES, > 100 µM (inactive); with SF-539 it was 22.9 µM (inactive); in the assay on OVCAR-8 it was 19.2 µM (inactive). The GI50 in the assay with SNB-19 was 19.4 µM (inactive).
Consider `COc1cccc(CCNc2c(C#N)c3nc4ccccc4n3c3ccccc23)c1`, for which the GI50 is 0.541 µM (active) in the assay with 786-0; 0.592 µM (active) in the assay with A498; 10.5 µM (inactive) in the assay with HOP-62; 2.33 µM (inactive) with MDA-MB-231; 3.87 µM (inactive) with OVCAR-3; 4.6 µM (inactive) in the assay on TK-10. Also, the GI50 was 0.316 µM (active) with UACC-62; 0.426 µM (active) in the assay on RPMI-8226; 4.23 µM (inactive) in the assay with M14; 0.741 µM (active) in the assay on NCI-H23; 0.063 µM (active) in the assay with NCI-H522; 0.186 µM (active) in the assay on SK-MEL-5. Besides, the GI50 was 1.05 µM (active) in the assay with CAKI-1; 2.17 µM (inactive) in the assay with T47D; 0.404 µM (active) with SNB-75; 0.333 µM (active) in the assay with NCI/ADR-RES; 0.548 µM (active) with SF-539; 0.807 µM (active) in the assay on OVCAR-8. Moreover, the GI50 in the assay on SNB-19 is 0.787 µM (active).
Consider `COc1ccc(C(c2c[nH]c3ccc(Br)cc23)c2c[nH]c3ccc(Br)cc23)cc1`, for which the GI50 is 0.215 µM (active) in the assay with 786-0; 1.04 µM (active) in the assay on A498; 0.411 µM (active) in the assay on HOP-62; 0.242 µM (active) in the assay with MDA-MB-231; 0.217 µM (active) in the assay on OVCAR-3; 0.993 µM (active) with TK-10. Besides, the GI50 in the assay with UACC-62 was 0.218 µM (active); with RPMI-8226, 0.175 µM (active); in the assay with M14, 0.237 µM (active); in the assay with NCI-H23, 0.367 µM (active); in the assay with NCI-H522, 0.173 µM (active); in the assay on SK-MEL-5 it was 0.359 µM (active). For the same molecule, the GI50 with CAKI-1 was 0.382 µM (active); in the assay on T47D, 0.446 µM (active); with SNB-75, 0.352 µM (active); with NCI/ADR-RES, 0.357 µM (active); in the assay on SF-539, 0.51 µM (active); in the assay with OVCAR-8, 0.22 µM (active). Besides, the GI50 in the assay with SNB-19 is 0.509 µM (active).
`O=C(CC(Cc1ccccc1)c1ccc(Oc2ccccc2)cc1)Nc1cccc(Cl)c1` (configuration not stated): the GI50 is 5.43 µM (inactive) in the assay on 786-0; 4.47 µM (inactive) in the assay on A498; 3.83 µM (inactive) with HOP-62; 10.8 µM (inactive) with MDA-MB-231; 3.86 µM (inactive) in the assay with OVCAR-3; 10 µM (inactive) with TK-10. The GI50 was 3.04 µM (inactive) in the assay on UACC-62; 3.72 µM (inactive) in the assay with RPMI-8226; 4.88 µM (inactive) in the assay with M14; 3.35 µM (inactive) with NCI-H23; 3.1 µM (inactive) in the assay with NCI-H522; 11.3 µM (inactive) with SK-MEL-5. Moreover, the GI50 with CAKI-1 is 3.66 µM (inactive); in the assay on T47D, 2.92 µM (inactive); with SNB-75 it was 6.73 µM (inactive); in the assay on NCI/ADR-RES, 3.62 µM (inactive); in the assay with SF-539 it was 26.1 µM (inactive); with OVCAR-8, 3.96 µM (inactive). In addition, in the assay with SNB-19, the GI50 was 4.5 µM (inactive).
For `COc1ccc(Oc2nc3cc(C(F)(F)F)ccc3nc2C(C)C)cc1`, the GI50 is 36 µM (inactive) with 786-0; 20 µM (inactive) in the assay with A498; 40.4 µM (inactive) with HOP-62; 24.7 µM (inactive) with MDA-MB-231; 29.6 µM (inactive) in the assay on OVCAR-3; 81.7 µM (inactive) in the assay on TK-10. For the same molecule, the GI50 was 28.2 µM (inactive) in the assay on UACC-62; 19.4 µM (inactive) in the assay on RPMI-8226; 31.6 µM (inactive) with M14; 21 µM (inactive) with NCI-H23; 19.1 µM (inactive) in the assay on NCI-H522; 22.2 µM (inactive) in the assay on SK-MEL-5. In addition, the GI50 with CAKI-1 was 35.2 µM (inactive); in the assay with T47D it was 15.1 µM (inactive); in the assay on SNB-75 it was 25.4 µM (inactive); in the assay with NCI/ADR-RES, 19.4 µM (inactive); with SF-539 it was 41.5 µM (inactive); in the assay with OVCAR-8 it was 25.2 µM (inactive). For the same molecule, the GI50 in the assay with SNB-19 is 33.1 µM (inactive).
Take `NC1=NN(c2ccccc2)C(=O)C1/C(=N\NC(=O)c1cc2ccccc2cc1O)C(=O)Nc1cccc(C(F)(F)F)c1` (configuration not stated): the GI50 in the assay on 786-0 was 38.1 µM (inactive); in the assay on HOP-62, 39.4 µM (inactive); in the assay with OVCAR-3 it was 25.7 µM (inactive); in the assay with TK-10, > 100 µM (inactive); in the assay on UACC-62, 35.2 µM (inactive); with RPMI-8226, 39.7 µM (inactive). The GI50 was 28.7 µM (inactive) in the assay on M14; 39.3 µM (inactive) in the assay on LXFL 529; 29.2 µM (inactive) in the assay with NCI-H23; 23.1 µM (inactive) in the assay with SK-MEL-5; > 100 µM (inactive) in the assay on SNB-75; 24.1 µM (inactive) in the assay with OVCAR-8. The GI50 in the assay on SNB-19 was 75 µM (inactive).
Regarding `Fc1ccc2c(c1)nc1n2C(c2c(F)cccc2F)SC1` (configuration not stated), the GI50 in the assay with 786-0 was 66.7 µM (inactive); in the assay on A498 it was 71.8 µM (inactive); in the assay on HOP-62 it was 66.7 µM (inactive); with MDA-MB-231 it was 91.8 µM (inactive); in the assay on OVCAR-3, 28.6 µM (inactive); with TK-10, 46.7 µM (inactive). Moreover, the GI50 was 45.5 µM (inactive) in the assay on UACC-62; 78.9 µM (inactive) in the assay with RPMI-8226; 49.8 µM (inactive) in the assay with M14; 34 µM (inactive) in the assay with NCI-H23; 30.1 µM (inactive) in the assay on NCI-H522; 21.8 µM (inactive) in the assay with SK-MEL-5. The GI50 with CAKI-1 was 32.5 µM (inactive); in the assay with T47D, 31 µM (inactive); in the assay with SNB-75 it was 28.2 µM (inactive); in the assay on NCI/ADR-RES it was 27.1 µM (inactive); in the assay with SF-539, > 100 µM (inactive); with OVCAR-8, 37.1 µM (inactive). The GI50 in the assay on SNB-19 was 45.4 µM (inactive).
With `COc1ccc(CNc2cc(OC)cc(OC)c2)cc1`, the GI50 is > 37.6 µM (inactive) with 786-0; > 61.5 µM (inactive) with HOP-62; 50.8 µM (inactive) in the assay with OVCAR-3; 52 µM (inactive) in the assay with UACC-62; > 49.7 µM (inactive) in the assay with RPMI-8226; > 100 µM (inactive) in the assay on M14. The GI50 in the assay on LXFL 529 was 49.3 µM (inactive); with NCI-H23, 40.6 µM (inactive); with NCI-H522, 23.1 µM (inactive); in the assay with SK-MEL-5 it was 30.3 µM (inactive); in the assay on SNB-75, 35.3 µM (inactive); in the assay on OVCAR-8 it was > 82 µM (inactive). Also, the GI50 in the assay with SNB-19 is > 100 µM (inactive).
